Target: hNav1.7 (Homo sapiens (Human), UniProt Q15858)
Test: Tritiated sulfonamide competitive binding to membranes from cells expressing hNav1.7 and the β1 subunit;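 note: displacement of the tritiated ligand from recombinant cell membranes, read by liquid scintillation counting of filter-bound radioactivity, nonspecific binding defined with 1 µM unlabelled compound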
Settings: 100 pM [3H]compound, 18 h, room temperature; inactivated state of NaV1.7 membrane binding; read-out: NaV1.7 Ligand Binding Assay (IC50)

Chain of hNav1.7 (Q15858 other isoform, or with tags, fused parts or gaps): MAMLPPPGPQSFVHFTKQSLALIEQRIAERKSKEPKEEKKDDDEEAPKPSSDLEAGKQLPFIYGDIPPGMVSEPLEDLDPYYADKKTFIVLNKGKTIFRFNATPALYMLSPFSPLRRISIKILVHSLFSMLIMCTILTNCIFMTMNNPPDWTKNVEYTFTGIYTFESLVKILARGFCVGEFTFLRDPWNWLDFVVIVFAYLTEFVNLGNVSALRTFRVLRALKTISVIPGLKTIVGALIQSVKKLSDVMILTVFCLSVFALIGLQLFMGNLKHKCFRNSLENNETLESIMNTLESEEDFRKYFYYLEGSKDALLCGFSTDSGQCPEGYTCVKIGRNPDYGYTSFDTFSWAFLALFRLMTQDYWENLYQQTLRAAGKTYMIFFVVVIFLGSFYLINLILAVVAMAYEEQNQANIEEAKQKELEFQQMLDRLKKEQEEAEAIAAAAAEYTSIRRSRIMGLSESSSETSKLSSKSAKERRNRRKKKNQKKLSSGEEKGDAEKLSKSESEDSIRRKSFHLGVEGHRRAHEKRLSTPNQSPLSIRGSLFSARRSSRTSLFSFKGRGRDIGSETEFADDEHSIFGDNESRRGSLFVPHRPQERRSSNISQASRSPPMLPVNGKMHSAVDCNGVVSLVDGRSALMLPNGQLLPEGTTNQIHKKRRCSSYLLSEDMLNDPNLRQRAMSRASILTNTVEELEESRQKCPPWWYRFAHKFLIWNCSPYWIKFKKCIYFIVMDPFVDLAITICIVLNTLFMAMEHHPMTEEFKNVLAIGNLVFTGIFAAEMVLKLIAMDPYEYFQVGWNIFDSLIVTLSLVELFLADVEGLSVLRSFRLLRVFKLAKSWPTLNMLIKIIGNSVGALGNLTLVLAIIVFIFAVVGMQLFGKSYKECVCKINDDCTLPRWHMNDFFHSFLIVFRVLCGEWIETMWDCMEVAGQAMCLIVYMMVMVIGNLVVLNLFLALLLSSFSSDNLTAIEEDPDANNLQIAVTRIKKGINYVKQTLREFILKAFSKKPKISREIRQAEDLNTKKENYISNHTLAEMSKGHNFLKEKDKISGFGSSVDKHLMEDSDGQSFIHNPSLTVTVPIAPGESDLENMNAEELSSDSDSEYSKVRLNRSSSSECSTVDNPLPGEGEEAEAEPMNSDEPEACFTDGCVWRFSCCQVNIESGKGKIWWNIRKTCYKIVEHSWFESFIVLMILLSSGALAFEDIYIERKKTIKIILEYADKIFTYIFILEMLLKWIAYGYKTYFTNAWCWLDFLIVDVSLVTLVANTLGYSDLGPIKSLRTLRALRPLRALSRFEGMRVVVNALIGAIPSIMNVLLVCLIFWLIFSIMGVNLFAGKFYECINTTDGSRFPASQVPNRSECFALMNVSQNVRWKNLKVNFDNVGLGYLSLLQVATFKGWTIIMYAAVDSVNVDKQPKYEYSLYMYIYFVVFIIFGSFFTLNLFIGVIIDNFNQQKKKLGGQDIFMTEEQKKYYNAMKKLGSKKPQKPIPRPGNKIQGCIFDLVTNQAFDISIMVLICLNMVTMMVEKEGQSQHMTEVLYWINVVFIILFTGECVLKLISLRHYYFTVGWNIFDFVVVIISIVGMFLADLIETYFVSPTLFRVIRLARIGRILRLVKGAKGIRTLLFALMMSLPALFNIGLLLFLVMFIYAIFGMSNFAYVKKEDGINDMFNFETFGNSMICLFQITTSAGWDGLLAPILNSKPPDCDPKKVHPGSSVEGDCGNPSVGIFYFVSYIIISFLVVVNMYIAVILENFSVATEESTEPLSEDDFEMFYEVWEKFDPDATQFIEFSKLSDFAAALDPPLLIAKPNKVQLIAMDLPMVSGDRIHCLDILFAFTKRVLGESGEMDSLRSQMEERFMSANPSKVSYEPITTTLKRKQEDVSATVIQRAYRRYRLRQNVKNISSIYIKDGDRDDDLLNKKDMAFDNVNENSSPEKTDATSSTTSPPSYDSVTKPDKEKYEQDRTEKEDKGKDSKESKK
Chain of hNav1.7 (Q07699 19-218 partner): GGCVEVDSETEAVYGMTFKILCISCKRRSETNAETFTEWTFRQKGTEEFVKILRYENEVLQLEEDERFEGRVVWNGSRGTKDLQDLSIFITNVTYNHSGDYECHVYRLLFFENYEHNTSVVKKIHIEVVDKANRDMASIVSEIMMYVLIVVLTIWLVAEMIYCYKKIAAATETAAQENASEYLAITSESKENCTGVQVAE

Row | IC50 [nM] | Structure (SMILES)
1 | 7 | CC1(C)[C@H]2CC[C@H](COc3cc4nnc(NS(=O)(=O)N5CCC5)n4cc3C3CC3)[C@@H]1C2 [Example 85, N-(6-cyclopropyl-7-(((1S,2S,5S)-6,6dimethylbicyclo [3.1.1]heptan-2-yl)methoxy)-[1,2,4]triazolopyridin-3-yl)azetidine-1-sulfonamide]
2 | 12 | CC1(COc2cc3nnc(NS(C)(=O)=O)n3cc2C2CC2)CCN(Cc2cc(Cl)cc(Cl)c2)CC1 [Example 110, N-(6-cyclopropyl-7-((1-(3,5-dichlorobenzyl)-4-methylpiperidin-4-yl)methoxy)-[1,2,4]triazolopyridin-3-yl)methanesulfonamide]
3 | 260 | CC1(C)C2CC[C@]1(C)[C@H](Oc1cc3nnc(NS(C)(=O)=O)n3cc1C1CC1)C2 (stereo in doubt) [Example 86]
4 | 8.51 | CS(=O)(=O)Nc1nnc2cc(OCCC34CC5CC(CC(C5)C3)C4)c(C3CC3)cn12 [Example 21]
5 | 4.87 | CC1(S(=O)(=O)Nc2nnc3cc(COc4cc(Cl)cc(Cl)c4)c(C4CC4)cn23)CC1 [Example 50, N-(6-cyclopropyl-7-((3,5-dichlorophenoxy)methyl)-[1,2,4]-triazolo[4,3-a]pyridin-3-yl)-1-methylcyclopropane-1-sulfonamide]
6 | 67.4 | CC1(COc2cc3nnc(NS(=O)(=O)C4CC4)n3cc2C2CC2)CCC(F)(F)CC1 [Example 53, N-(6-cyclopropyl-7-((4,4-difluoro-1-methylcyclohexyl)methoxy)-[1,2,4]triazolo[4,3-a]pyridin-3-yl)cyclopropanesulfonamide]
7 | 66 | O=S(=O)(Nc1nnc2cc(OC3C4CC5CC(C4)CC3C5)c(C3CC3)cn12)C1CC1 (centres unmarked) [Example 79, N-(7-(adamantan-2-yloxy)-6-cyclopropyl-[1,2,4]triazolo-[4,3-a]pyridin-3-yl)cyclopropanesulfonamide]
8 | 22.6 | CS(=O)(=O)Nc1nnc2cc(OC[C@H]3CC[C@H](C(F)(F)F)CC3)c(C3CC3)cn12 [Example 13, N-(6-cyclopropyl-7-(((trans)-4-(trifluoromethyl)cyclohexyl)-methoxy)-[1,2,4]triazolo[4,3-a]pyridin-3-yl)methanesulfonamide]
9 | 90 | CS(=O)(=O)Nc1nnc2cc(OCC3CCCCC3)c(Br)cn12 [Example 61, N-(6-bromo-7-(cyclohexylmethoxy)-[1,2,4]triazolo[4,3-a]pyridin-3-yl)methanesulfonamide]
10 | 5 | CC1(S(=O)(=O)Nc2nnc3cc(COc4cc(Cl)cc(Cl)c4)c(C4CC4)cn23)CC1 [Example 105, N-(6-cyclopropyl-7-((3,5-dichlorophenoxy)methyl)-[1,2,4]-triazolo[4,3-a]pyridin-3-yl)-1-methylcyclopropane-1-sulfonamide]
11 | 19 | O=S(=O)(Nc1nnc2cc(COc3ccc(Cl)c(Cl)c3)c(C3CC3)cn12)N1CCC1 [Example 96, N-(6-cyclopropyl-7-((3,4-dichlorophenoxy)methyl)-[1,2,4]triazolo[4,3-a]pyridin-3-yl)azetidine-1-sulfonamide]
12 | 45 | CS(=O)(=O)Nc1nnc2cc(OCC3(C(F)(F)F)CCCC3)c(C3CC3)cn12 [Example 92, N-(6-cyclopropyl-7-((1-(trifluoromethyl)cyclopentyl)methoxy)-[1,2,4]triazolo[4,3-a]pyridin-3-yl)methanesulfonamide]
13 | 14 | CC1(COc2cc3nnc(NS(C)(=O)=O)n3cc2C2CC2)CCCCC1 [Example 14, N-(6-cyclopropyl-7-((1-methylcyclohexyl)methoxy)-[1,2,4]-triazolo[4,3-a]pyridin-3-yl)methanesulfonamide]
14 | 67 | CC1(COc2cc3nnc(NS(=O)(=O)C4CC4)n3cc2C2CC2)CCC(F)(F)CC1 [Example 108, N-(6-cyclopropyl-7-((4,4-difluoro-1-methylcyclohexyl)methoxy)-[1,2,4]triazolo[4,3-a]pyridin-3-yl)cyclopropanesulfonamide]
